# Measurements from ChEMBL document CHEMBL4177599, “The antitubercular activity of various nitro(triazole/imidazole)-based compounds” (Bioorg Med Chem, 2017).
# What was measured:
# [1] = Half life in human liver S9 microsomes at 1 uM in presence of NADPH by LC-MS/MS analysis
# [2] = Half life in human liver S9 microsomes at 1 uM in absence of NADPH by LC-MS/MS analysis
# [3] = human, caco-2, 2 h, 10 µM
# Description: (§1) Apparent permeability of the compound across apical side to basolateral side in human Caco2 cells monolayer at 10 uM after 2 hrs by LC-MS/MS analysis
# [4] = Protein binding in human plasma at 5 uM after 4 hrs by LC-MS/MS analysis
# [5] = test system: Mycobacterium tuberculosis; experiment: Antitubercular activity against luxABCDE expressing Mycobacterium tuberculosis H37Rv infected in mouse J774 macrophages assessed as log reduction in bacterial colonies at 20 uM measured after 4 days under aerobic condition by luminescence assay; type: functional
# Vero = experiment: Cytotoxicity against African green monkey Vero cells after 2 days by CellTiter-Glo luminescent cell viability assay; type: ADME, cell-based; details: Chlorocebus sabaeus, 48 h
# [6] = test system: Mycobacterium tuberculosis; experiment: Antitubercular activity against Mycobacterium tuberculosis H37Rv ATCC 27294 after 10 days under low oxygen condition followed by incubation under aerobic condition for 28 hrs by LORA; type: functional, organism-based
# HepG2 = experiment: Cytotoxicity against human HepG2 cells at 100 uM after 3 days by CellTiter-Glo luminescent cell viability assay; type: cell-based; details: HepG2, 72 h
# [7] = test system: Mycobacterium tuberculosis; experiment: Bactericidal activity against Mycobacterium tuberculosis H37Rv ATCC 27294 assessed as concentration required for 2 log kill after 21 days under aerobic condition by colony forming assay; type: functional; details: for MBC: H37Rv ATCC 27294, 504 h
# [8] = test system: Mycobacterium tuberculosis; experiment: Antitubercular activity against Mycobacterium tuberculosis H37Rv ATCC 27294 after 5 days under aerobic condition; type: functional, organism-based; details: for IC50 / IC90 / MIC: H37Rv ATCC 27294, 120 h
# [9] = human, caco-2, 2 h, 10 µM; remark: listed apart in the source
# Description: (§2) Apparent permeability of the compound across basolateral side to apical side in human Caco2 cells monolayer at 10 uM after 2 hrs by LC-MS/MS analysis
# in vitro [10] = details: human, Caco-2
# Description: as §2
# in vitro [11] = details: human, THP1 cells
# Description: Selectivity index, ratio of IC50 for human THP1 cells to IC50 for Mycobacterium tuberculosis H37Rv under aerobic condition
# [12] = Apparent permeability of the compound across apical side to basolateral side in human Caco2 cells monolayer at 10 uM after 1 hr by LC-MS/MS analysis; type: ADME, cell-based; details: Caco-2
# [13] = Fraction unbound in human plasma at 5 uM after 4 hrs by LC-MS/MS analysis; type: ADME, cell-free
# in vitro [14] = details: human, Caco-2; remark: listed apart in the source
# Description: Efflux ratio of apparent permeability from basolateral to apical over apical to basolateral side in human Caco2 cells monolayer at 10 uM after 1 hr by LC-MS/MS analysis
# in vitro [15] = details: human, Caco-2; remark: listed apart in the source
# Description: Efflux ratio of apparent permeability from basolateral to apical over apical to basolateral side in human Caco2 cells monolayer at 10 uM after 2 hrs by LC-MS/MS analysis
# in vitro [16] = details: human, Caco-2; remark: listed apart in the source
# Description: as §1
# [17] = Apparent permeability of the compound across basolateral side to apical side in human Caco2 cells monolayer at 10 uM after 1 hr by LC-MS/MS analysis; type: ADME, cell-based; details: Caco-2
# [18] = Intrinsic clearance in human liver S9 microsomes at 1 uM in absence of NADPH by LC-MS/MS analysis; type: ADME, S9 microsome; details: read-out: CLH
# [19] = test system: Mycobacterium tuberculosis; experiment: Antitubercular activity against luxABCDE expressing Mycobacterium tuberculosis H37Rv infected in human THP1 cells measured after 3 days by luminescence assay; type: functional, organism-based; details: THP-1, 72 h
# L6 = experiment: Cytotoxicity against rat L6 cells after 2 days by CellTiter-Glo luminescent cell viability assay; type: ADME, cell-based; details: L6, 48 h
# THP-1 = experiment: Cytotoxicity against human THP1 cells after 3 days by luminescence assay; type: cell-based; details: THP-1, 72 h
# [20] = Intrinsic clearance in human liver S9 microsomes at 1 uM in presence of NADPH by LC-MS/MS analysis; type: ADME, S9 microsome; details: read-out: CLH
# [21] = test system: Mycobacterium tuberculosis; experiment: Antitubercular activity against luxABCDE expressing Mycobacterium tuberculosis H37Rv infected in mouse J774 macrophages assessed as log reduction in bacterial colonies at 10.9 uM measured after 4 days under aerobic condition by luminescence assay; type: functional
# [22] = Solubility of compound in Middlebrook 7H9 broth media at pH 6.4 at 200 uM after 90 mins by UV-VIS spectrophotometric method; type: physicochemical; details: buffer, pH 6.4, 1.5 h
# [23] = test system: Mycobacterium tuberculosis; experiment: Potency index, ratio of compound MIC to metronidazole MIC for antitubercular activity against Mycobacterium tuberculosis H37Rv ATCC 27294 under low oxygen condition; type: functional
# [24] = test system: Mycobacterium tuberculosis; experiment: Antitubercular activity against luxABCDE expressing Mycobacterium tuberculosis H37Rv infected in mouse J774 macrophages assessed as log reduction in bacterial colonies at 7.2 uM measured after 4 days under aerobic condition by luminescence assay; type: functional
# [25] = test system: Mycobacterium tuberculosis; experiment: Antitubercular activity against luxABCDE expressing Mycobacterium tuberculosis H37Rv infected in mouse J774 macrophages assessed as log reduction in bacterial colonies at 2.6 uM measured after 4 days under aerobic condition by luminescence assay; type: functional
# [26] = test system: Mycobacterium tuberculosis; experiment: Antitubercular activity against luxABCDE expressing Mycobacterium tuberculosis H37Rv infected in mouse J774 macrophages assessed as log reduction in bacterial colonies at 30 uM measured after 4 days under aerobic condition by luminescence assay; type: functional
# [27] = test system: Mycobacterium tuberculosis; experiment: Potency index, ratio of compound MIC to ethambutol MIC for antitubercular activity against Mycobacterium tuberculosis H37Rv ATCC 27294 under aerobic condition; type: functional
SMILES,half-life at 1 µM [1] [h],half-life at 1 µM [2] [h],"fraction unbound at 4 h, 5 µM [4]",IC50 (Vero) [µM],IC50 [6] [µM],IC90 [6] [µM],MIC [6] [µM],IC50 (HepG2) [µM],MBC [7] [µM],IC50 [8] [µM],IC90 [8] [µM],MIC [8] [µM],"Papp B→A at 2 h, 10 µM (in vitro [10]) [×10⁻⁶ cm/s]","fraction unbound at 4 h, 5 µM [13]","efflux ratio at 1 h, 10 µM (in vitro [14])","efflux ratio at 2 h, 10 µM (in vitro [15])","Papp A→B at 2 h, 10 µM (in vitro [16]) [×10⁻⁶ cm/s]","Papp B→A at 1 h, 10 µM [17] [×10⁻⁶ cm/s]",IC50 [19] [µM],IC90 [19] [µM],other results
O=C(Cn1cnc([N+](=O)[O-])n1)Nc1nc(-c2ccc(F)c(F)c2)cs1,> 3,> 3,0.002,55,8.7,39,> 200,78,20,27,39,37,–,–,–,–,–,–,–,–,Papp [3]: 37.7 ×10⁻⁶ cm/s; log(activity) [5]: 2.4; Papp [9]: 19.9 ×10⁻⁶ cm/s
O=C(CCn1cnc([N+](=O)[O-])n1)Nc1cccc(-c2ccccc2)c1,> 3,> 3,0.042,–,7.8,44,> 200,> 100,6.8,3.6 to 6.1,6.8 to 7.1,6.8 to 8.4,7,0.033,0.79,0.39,18,17.5,2.3,4.1,"selectivity ratio (in vitro [11]): > 10; Papp A→B at 1 h, 10 µM [12]: 22.2 ×10⁻⁶ cm/s; Activity ([7]; TDE = time-dependent effect): Tde; microsomal CLint at 1 µM [18]: < 12.8 µL/min/mg; Activity ([8]; TDE = time-dependent effect): Tde; IC50 (L6): 36 µM; IC50 (THP-1): > 50 µM; microsomal CLint at 1 µM [20]: < 12.8 µL/min/mg"
O=C(NCCCCn1cnc([N+](=O)[O-])n1)c1nc2ccccc2s1,–,–,–,> 100,26,29.2,23.4,–,10.9,4.9,7.4,6.7,–,–,–,–,–,–,–,–,log(activity) [21]: 2.4; solubility [22]: Soluble; Ratio [23]: 6 - 9
O=C(NCCCCn1cnc([N+](=O)[O-])n1)c1sc2ccccc2c1Cl,–,–,–,> 100,35.5,61.4,21.5,–,7.2,4,6.4,6.1,–,–,–,–,–,–,–,–,log(activity) [24]: 2.2; Ratio [23]: 6 - 9; IC50 (L6): > 264 µM
NNC(=O)c1ccncc1 [ISONIAZID],–,–,–,–,–,–,–,–,–,0.131,0.2,0.313,–,–,–,–,–,–,0.19,0.24,log(activity) [25]: 2.6; log(activity) [26]: 2.7
CC(C)NCC(O)COc1cccc2ccccc12 (stereo unspecified) [PROPRANOLOL],–,–,0.199,–,–,–,–,–,–,–,–,–,21.1 to 27.3,0.244,2.5,0.83 to 3.1,8.8 to 25.4,43.3,–,–,–
O=C(CCn1cnc([N+](=O)[O-])n1)Nc1cccc(OCc2ccccc2)c1,2.07,> 3,0.033,–,9.2,41,> 200,> 100,0.75,1.7 to 3.2,2.8 to 3.6,3 to 4.1,10.5,0.042,0.79,0.67,15.8,17.6,1.3,2.9,"selectivity ratio (in vitro [11]): > 10; Papp A→B at 1 h, 10 µM [12]: 22.2 ×10⁻⁶ cm/s; Activity [7]: Dose-dependent effect; microsomal CLint at 1 µM [18]: < 12.8 µL/min/mg; Activity [8]: Dose-dependent effect; Ratio [27]: 2; IC50 (L6): 40 µM; IC50 (THP-1): > 50 µM; microsomal CLint at 1 µM [20]: 18.7 µL/min/mg"
